Data: patent US20180074053A1 (priority 2016, published 2018)
Read-outs that look alike come from different tables or passages of the source. Non-standard residues stand in square brackets, D forms with d. No end group written: not given here.

Experiments:
STC-1 cells = test: GLP-1 secretion from STC-1 cells (ELISA); assay type: cell-based, mouse; conditions: 2 hours, DMEM without serum and glucose; FIG. 3
Procedure: The pathways and sites of action of H89 and U73122 are graphically represented in FIG. 2.
Supernatants were collected for GLP-1 measurement. and the GLP-1 concentration was measured using a total GLP-1 (7-36 and 9-36) ELISA kit according to manufacturer's instruction (Alpco. Salem, N.H.).

eNOS = eNOS mRNA expression in HUVEC; assay type: cell-based, human; conditions: FIG. 15
Excerpt: It has been shown that activation of MRGD by alamandine plays an important role in vasodilation by increasing nitric oxide (NO) production. NO produced by the endothelium is an important protective molecule in the vasculature and is mainly generated by the enzyme endothelial NO synthase (eNOS) in blood vessels. Enhancing the expression of eNOS has been considered as possible therapeutic strategy for reducing cardiovascular risk.

GPCR109a [1] = target: T1, GPCR109a (Homo sapiens, UniProt Q8TDS4); test: cell-based
Procedure: (§1) The platform uses ChemiScreen GPCR stable cell lines that are used for real-time calcium flux assays to rapidly, screen a spectrum of GPCRs. […] Percentage activation values were determined upon initial addition of compound(s). Percentage activation and inhibition values were determined for each GPCR relative to the reference compounds.
(§2) Assays were performed according to the manufacturer's instructions. […] The assay plate was read by the FLIPR TETRA® (Molecular Devices, Sunnyvale, Calif.). All assay plate data were subjected to appropriate baseline corrections and the maximum fluorescence values were processed to calculate percentage activation (relative to ECmax reference agonist and vehicle control values).

NK1 = NK1 (Homo sapiens, UniProt P25103); test: cell-based
Procedure: as §1, §2

MRGX1 = MRGX1 (Homo sapiens, UniProt Q96LB2); test: cell-based
Procedure: as §1, §2

NMUR1 = NMUR1 (Homo sapiens, UniProt Q9HB89); test: cell-based
Procedure: as §1, §2

MC4 = MC4 (Homo sapiens, UniProt P32245); test: cell-based
Procedure: as §1, §2

NMUR2 = NMUR2 (Homo sapiens, UniProt Q9GZQ4); test: cell-based
Procedure: as §1, §2

GPCR40 = GPCR40 (Homo sapiens, UniProt O14842); conditions: doses of 5 mM and below; FIG. 7A
Procedure: (§3) Cells were grown in DMEM medium containing 10% FBS, 1× non-essential amino acids (Gibco #111450-040), 20 mM HEPES and 250 μg/mL Geneticin® (Gibco #10131-035). Cells were harvested with 0.25% Trypsin/EDTA (Gibco #25200-056), pelleted at 1,200×g for 6 minutes and resuspended in DMEM media described above minus Geneticin®. The cells were seeded at 4×10^4 cells/well/100 μL of a clear bottom/black 96-well plate and grown overnight. The calcium mobilization assays was performed using Screen Quest Fluo-8 Medium Removal Calcium Assay Kit (AAT Bioquest #36308) according to the manufacturer's protocol. Briefly, cells were washed with 100 μL volume of Hank's balanced salt solution, 20 mM HEPES, pH 7.4 and loaded with a buffer containing HBSS, 20 mM HEPES, 1× Pluronic F127 and the Fluo-8 NW dye. The cells were incubated for 30 minutes at 37° C. followed by a 30 minute room temperature incubation. Drug stocks were prepared at 100× concentration and diluted 1:33 in HBSS, 20 mM HEPES, pH 7.4 in a 96-well plate (Corning #3641). Calcium mobilization was measured using the FlexStation 3 (Molecular Devices) at excitation wavelength of 490 nm and emission wavelength of 525 nm. Fluorescence was measured for 180 seconds at 5 second intervals with the addition of compound at a 1:3 dilution after 15 seconds. Peak fluorescence values were calculated using SoftMax Pro 5 (Molecular Devices). The fluorescence values obtained from control wells without cells are subtracted from wells containing treated cells to correct for background. The ratio of fluorescence values of treated cells to vehicle control wells was used to calculate fold activity of the compounds.
(§4) The specificity of the agonist activity was determined by testing in the cell lines that over-express GPCR40 and GPCR 109a.

GPCR109a [2] = target: T1, GPCR109a; conditions: doses of 5 mM and below; FIG. 6A
Procedure: as §3, §4

[3] = target: GPCR40, the free fatty acid receptor (human, UniProt O14842 1-300); test: cell-based or functional assay
MCHR2 = MCHR2 (UniProt Q969V1 1-340, limits assumed); test: cell-based or functional assay
[4] = target: GPCR 109a, the nicotinic acid receptor (human, UniProt Q8TDS4 1-363); test: cell-based or functional assay
[5] = read-out: percent activation compared to standards, DT-110 @ 1.25 mM, Avg.
[6] = read-out: percent activation compared to standards, DT-110 @ 1.25 mM, n1
[7] = read-out: percent activation compared to standards, DT-110 @ 1.25 mM, n2
[8] = read-out: percent activation compared to standards, DT-110 @ 12.5 mM, Avg.
[9] = read-out: percent activation compared to standards, DT-110 @ 12.5 mM, n1
[10] = read-out: percent activation compared to standards, DT-110 @ 12.5 mM, n2

Chain of GPCR 109a, the nicotinic acid receptor (Q8TDS4 whole entry): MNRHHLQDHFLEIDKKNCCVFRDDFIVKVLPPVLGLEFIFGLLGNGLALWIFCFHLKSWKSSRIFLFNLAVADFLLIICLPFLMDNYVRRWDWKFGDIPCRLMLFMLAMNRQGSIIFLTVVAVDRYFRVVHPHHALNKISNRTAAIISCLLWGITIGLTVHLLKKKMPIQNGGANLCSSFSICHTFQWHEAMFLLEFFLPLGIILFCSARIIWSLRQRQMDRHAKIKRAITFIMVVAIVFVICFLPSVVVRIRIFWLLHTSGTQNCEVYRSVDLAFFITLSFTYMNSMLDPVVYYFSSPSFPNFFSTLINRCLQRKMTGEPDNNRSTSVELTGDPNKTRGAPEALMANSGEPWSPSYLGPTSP
T1 sequence (Q8TDS4 whole entry): as above
Chain of NK1 (P25103 whole entry): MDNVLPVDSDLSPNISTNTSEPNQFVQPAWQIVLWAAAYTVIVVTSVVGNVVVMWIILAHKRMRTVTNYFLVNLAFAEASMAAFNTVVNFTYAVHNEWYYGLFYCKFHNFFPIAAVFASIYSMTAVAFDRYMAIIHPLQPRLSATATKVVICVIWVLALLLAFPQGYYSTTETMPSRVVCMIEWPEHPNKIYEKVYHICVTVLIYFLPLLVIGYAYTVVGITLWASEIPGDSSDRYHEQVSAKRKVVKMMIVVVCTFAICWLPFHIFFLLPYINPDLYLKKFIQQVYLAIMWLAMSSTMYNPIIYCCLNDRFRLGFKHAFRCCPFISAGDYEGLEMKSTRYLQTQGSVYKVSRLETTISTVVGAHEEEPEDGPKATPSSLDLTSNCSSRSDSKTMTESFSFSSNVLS
Chain of NMUR2 (Q9GZQ4 whole entry): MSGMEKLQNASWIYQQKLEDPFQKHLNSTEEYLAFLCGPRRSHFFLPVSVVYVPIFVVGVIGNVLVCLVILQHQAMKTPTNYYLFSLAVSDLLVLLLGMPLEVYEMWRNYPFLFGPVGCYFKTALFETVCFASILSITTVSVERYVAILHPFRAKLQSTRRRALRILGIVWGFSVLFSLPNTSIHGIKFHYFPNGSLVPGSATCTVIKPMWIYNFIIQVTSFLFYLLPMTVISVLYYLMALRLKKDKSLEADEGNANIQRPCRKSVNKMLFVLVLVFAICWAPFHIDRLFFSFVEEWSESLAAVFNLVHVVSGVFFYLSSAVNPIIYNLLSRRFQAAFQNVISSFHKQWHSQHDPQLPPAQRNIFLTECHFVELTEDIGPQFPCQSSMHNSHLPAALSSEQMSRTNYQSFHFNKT
Chain of MC4 (P32245 whole entry): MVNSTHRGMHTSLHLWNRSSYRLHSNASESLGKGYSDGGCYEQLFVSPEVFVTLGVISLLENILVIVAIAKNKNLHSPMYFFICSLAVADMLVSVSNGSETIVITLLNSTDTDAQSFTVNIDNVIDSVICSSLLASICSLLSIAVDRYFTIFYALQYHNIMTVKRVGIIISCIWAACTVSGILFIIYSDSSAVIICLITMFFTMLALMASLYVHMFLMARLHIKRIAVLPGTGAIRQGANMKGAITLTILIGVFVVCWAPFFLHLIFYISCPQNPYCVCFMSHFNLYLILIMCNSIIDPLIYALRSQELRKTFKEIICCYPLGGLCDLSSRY
Chain of NMUR1 (Q9HB89 whole entry): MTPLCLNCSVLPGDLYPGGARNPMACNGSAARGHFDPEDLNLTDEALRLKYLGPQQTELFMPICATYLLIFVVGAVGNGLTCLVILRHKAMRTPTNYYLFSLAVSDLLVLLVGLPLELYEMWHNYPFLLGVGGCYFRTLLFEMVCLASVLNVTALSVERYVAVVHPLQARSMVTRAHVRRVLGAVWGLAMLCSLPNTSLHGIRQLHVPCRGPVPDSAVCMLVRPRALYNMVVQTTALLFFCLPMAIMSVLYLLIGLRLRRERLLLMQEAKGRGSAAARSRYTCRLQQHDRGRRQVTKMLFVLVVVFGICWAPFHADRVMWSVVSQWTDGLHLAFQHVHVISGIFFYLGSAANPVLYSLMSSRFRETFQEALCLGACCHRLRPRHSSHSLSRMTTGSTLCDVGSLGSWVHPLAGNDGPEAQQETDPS
Chain of GPCR40, the free fatty acid receptor (O14842 whole entry): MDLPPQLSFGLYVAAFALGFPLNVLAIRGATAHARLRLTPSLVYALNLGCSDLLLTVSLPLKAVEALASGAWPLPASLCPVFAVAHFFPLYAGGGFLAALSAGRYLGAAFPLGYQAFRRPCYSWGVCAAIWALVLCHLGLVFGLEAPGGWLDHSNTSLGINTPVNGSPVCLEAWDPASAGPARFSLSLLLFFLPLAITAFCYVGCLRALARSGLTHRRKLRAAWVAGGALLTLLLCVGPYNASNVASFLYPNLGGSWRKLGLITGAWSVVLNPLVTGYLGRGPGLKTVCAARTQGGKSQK
Chain of MRGX1 (Q96LB2 whole entry): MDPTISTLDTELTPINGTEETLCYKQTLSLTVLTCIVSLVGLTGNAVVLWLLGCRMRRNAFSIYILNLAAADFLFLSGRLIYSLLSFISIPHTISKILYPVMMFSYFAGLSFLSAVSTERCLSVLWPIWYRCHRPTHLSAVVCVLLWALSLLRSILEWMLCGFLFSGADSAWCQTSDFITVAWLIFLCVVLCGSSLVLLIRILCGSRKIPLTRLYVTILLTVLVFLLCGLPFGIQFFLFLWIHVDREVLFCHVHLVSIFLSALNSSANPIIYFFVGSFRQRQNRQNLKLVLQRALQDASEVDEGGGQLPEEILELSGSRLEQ
Chain of MCHR2 (Q969V1 whole entry): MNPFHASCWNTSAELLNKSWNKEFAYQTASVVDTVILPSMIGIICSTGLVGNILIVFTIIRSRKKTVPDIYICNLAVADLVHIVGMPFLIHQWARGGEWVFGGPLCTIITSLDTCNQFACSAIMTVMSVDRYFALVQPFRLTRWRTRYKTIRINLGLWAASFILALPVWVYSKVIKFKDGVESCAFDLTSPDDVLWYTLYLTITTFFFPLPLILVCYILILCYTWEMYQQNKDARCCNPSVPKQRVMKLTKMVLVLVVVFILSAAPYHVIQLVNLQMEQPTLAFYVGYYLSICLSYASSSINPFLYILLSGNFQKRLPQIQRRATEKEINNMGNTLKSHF
Chain of GPCR40 (O14842 whole entry): as the sequence (O14842 whole entry) above

CC(C)C[C@@H](NC(=O)CNC(=O)CN)C(=O)O
release of GLP-1 by STC-1 cells (STC-1 cells): stimulated significant release of GLP-1 | eNOS mRNA levels (eNOS; 30 minutes, vs control): the same | eNOS expression (eNOS; 60 minutes): increased eNOS expression | eNOS expression (eNOS; 120 minutes): increased eNOS expression | activation at 1250 µM (GPCR109a [1]; [5]): -8.1% | activation at 1250 µM (GPCR109a [1]; [6]): -8.1% | activation at 1250 µM (GPCR109a [1]; [7]): -8% | activation at 12500 µM (GPCR109a [1]; [8]): 54.3% | activation at 12500 µM (GPCR109a [1]; [9]): 52.9% | activation at 12500 µM (GPCR109a [1]; [10]): 55.7% | activation at 1250 µM (NK1; [5]): -0.9% | activation at 1250 µM (NK1; [6]): -1% | activation at 1250 µM (NK1; [7]): -0.9% | activation at 12500 µM (NK1; [8]): -1.1% | activation at 12500 µM (NK1; [9]): -1% | activation at 12500 µM (NK1; [10]): -1.1% | activation at 1250 µM (MRGX1; [5]): -1.9% | activation at 1250 µM (MRGX1; [6]): -1.3% | activation at 1250 µM (MRGX1; [7]): -2.5% | activation at 12500 µM (MRGX1; [8]): -6.6% | activation at 12500 µM (MRGX1; [9]): -6.7% | activation at 12500 µM (MRGX1; [10]): -6.6% | activation at 1250 µM (NMUR1; [5]): 0.5% | activation at 1250 µM (NMUR1; [6]): 1.3% | activation at 1250 µM (NMUR1; [7]): -0.4% | activation at 12500 µM (NMUR1; [8]): -0.1% | activation at 12500 µM (NMUR1; [9]): -0.7% | activation at 12500 µM (NMUR1; [10]): 0.5% | activation at 1250 µM (MC4; [5]): -0.5% | activation at 1250 µM (MC4; [6]): 3% | activation at 1250 µM (MC4; [7]): -4% | activation at 12500 µM (MC4; [8]): 3.4% | activation at 12500 µM (MC4; [9]): -0.2% | activation at 12500 µM (MC4; [10]): 7% | activation at 1250 µM (NMUR2; [5]): 2.4% | activation at 1250 µM (NMUR2; [6]): 0.9% | activation at 1250 µM (NMUR2; [7]): 3.9% | activation at 12500 µM (NMUR2; [8]): -0.9% | activation at 12500 µM (NMUR2; [9]): 0.4% | activation at 12500 µM (NMUR2; [10]): -2.2% | agonist activity (Ca2+ flux) (GPCR40): inactive | agonist activity (Ca2+ flux) (GPCR109a [2]): inactive

B1: DT-110, tripeptide glycine-glycine-D-leucine (GGdL) (peptide)
peptide: Gly-Gly-[dL]
percent activation (calcium flux, GPCRProfiler), DT-110 @ 1.25 mM, Avg. [3]: -9.5% | percent activation (calcium flux, GPCRProfiler), DT-110 @ 1.25 mM, n1 [3]: -9.3% | percent activation (calcium flux, GPCRProfiler), DT-110 @ 1.25 mM, n2 [3]: -9.6% | percent activation (calcium flux, GPCRProfiler), DT-110 @ 12.5 mM, Avg. [3]: 50.2% | percent activation (calcium flux, GPCRProfiler), DT-110 @ 12.5 mM, n1 [3]: 55.9% | percent activation (calcium flux, GPCRProfiler), DT-110 @ 12.5 mM, n2 [3]: 44.5% | percent activation (calcium flux, GPCRProfiler), DT-110 @ 1.25 mM, Avg. (MCHR2): 0.5% | percent activation (calcium flux, GPCRProfiler), DT-110 @ 1.25 mM, n1 (MCHR2): 0.1% | percent activation (calcium flux, GPCRProfiler), DT-110 @ 1.25 mM, n2 (MCHR2): 0.8% | percent activation (calcium flux, GPCRProfiler), DT-110 @ 12.5 mM, Avg. (MCHR2): -0.9% | percent activation (calcium flux, GPCRProfiler), DT-110 @ 12.5 mM, n1 (MCHR2): -0.8% | percent activation (calcium flux, GPCRProfiler), DT-110 @ 12.5 mM, n2 (MCHR2): -0.9% | percent activation (calcium flux, GPCRProfiler), DT-110 @ 1.25 mM, Avg. [4]: -8.1% | percent activation (calcium flux, GPCRProfiler), DT-110 @ 1.25 mM, n1 [4]: -8.1% | percent activation (calcium flux, GPCRProfiler), DT-110 @ 1.25 mM, n2 [4]: -8% | percent activation (calcium flux, GPCRProfiler), DT-110 @ 12.5 mM, Avg. [4]: 54.3% | percent activation (calcium flux, GPCRProfiler), DT-110 @ 12.5 mM, n1 [4]: 52.9% | percent activation (calcium flux, GPCRProfiler), DT-110 @ 12.5 mM, n2 [4]: 55.7%
